{"source": "patent US5951473A", "about": "“Determination of intracellular sodium and potassium ions by NMR” (Board of Regents, The University of Texas System, priority 1997, dated 1999)", "key": {"[1]": {"system": "intra- and extracellular sodium of rat liver", "test": "In vivo ^23 Na NMR shift experiments in rat liver during shift reagent infusion", "details": "for ^23 Na shift and line broadening in words: DyTTHA^3- versus TmDOTP^5-; for dose required to induce a ^23 Na shift of 5 ppm: body weight; for peak width at half height, extracellular resonance / peak width at half height, intracellular resonance: resonances separated by 5 ppm", "quoted_text": "(§1) Animal Preparation: Male Sprague-Dawley rats weighing 350-450 g were initially anesthetized by intramuscular injection of a 0.5 ml mixture of ketamine (13 mg/ml) and xylazine (87 mg/ml). Both jugular veins and a carotid artery were cannulated through a midline neck incision. One jugular vein was used to maintain the anesthesia (2 mg/ml ketamine, 0.25 mg/ml xylazine in 5% guaifenesin) at a rate of 2-3 ml/hour, and the other was used to infuse SR. The blood pressure and heart rate were continuously monitored from the carotid artery during the NMR experiments using a Gould transducer and Coulbourn polygraph. A tracheotomy was performed and the rat was connected to a respirator and maintained at a respiration rate of 90 breaths/minute and a tidal volume of 3 cc. The rats were also nephrectomized to eliminate clearance of the shift reagent, except in those animals where SR clearance was measured. Livers were exposed through a subcostal incision and a surface coil was positioned directly on the liver with the animal in a supine position. The animals were maintained at 37° C. using a water recirculating heating pad.\n(§2) SR Infusion: Stock solutions of 80 mM TmDOTP^5- or 400 mM DyTTHA^3- were initially infused at a rate of 2 ml/hr for 6 minutes. […] After achieving a chemical shift difference of 5-7 ppm between the intra- and extracellular sodium resonances, the infusion rate was reduced to 2-3 ml/hr. No Ca^2+ was added during infusion of either SR.\n(§3) NMR Data Collection: All in vivo NMR experiments were performed on a 4.7-T 40-cm GE CSI Omega spectrometer (GE NMR Instruments, Fremont, Calif.). Shimming was performed on the sodium signal. A sodium line width of 35-40 Hz was typical. Both ^23 Na and ^31 P spectra were collected in an interleaved fashion during TmDOTP^5- infusion. […] The coil performance was optimized such that there was less sensitivity loss at the ^31 P frequency as compared to at the ^23 Na frequency.\n(§4) Switching of these parameters and the spectrometer frequency was executed by a script in an automated fashion. To take advantage of the short spin-lattice relaxation time of sodium, two ^23 Na acquisitions were collected between each ^31 P acquisition. Cyclops phase cycling was used for both the nuclei. […] The FIDs were Fourier transformed after base-line correction and a single exponential multiplication corresponding to 10 Hz line broadening for ^23 Na and a 20 Hz line broadening for ^31 P."}, "[2]": {"details": "live rats, Bansal et al. 1992; cited from earlier work"}, "[3]": {"test": "Physiological measurements (heart rate, pressure, blood serum and gas values) in rats during TmDOTP^5- infusion", "details": "doses required for baseline resolution of ^23 Na resonances", "quoted_text": "as §1, §2\n(§5) Several key physiological measurements were obtained on a group of animals (n=7) during infusion of TmDOTP^5- using the same protocol as used during all subsequent NMR measurements. […] Excess Ca^2+ was not coadded with the SR in these experiments, unlike in isolated perfused heart experiments where excess Ca^2+ must be coadded with TmDOTP^5- to maintain an extracellular free [Ca^2+ ] of about 1 mM.\n(§6) Serum sodium, potassium, and hemoglobin concentrations as well as arterial pH, pCO2 and pO2 were monitored throughout the infusion protocol using a standard clinical blood gas analyzer."}, "in vivo exposed livers": {"system": "in vivo exposed livers", "details": "rat", "quoted_text": "Animal Preparation: Male Sprague-Dawley rats weighing 350-450 g were initially anesthetized by intramuscular injection of a 0.5 ml mixture of ketamine (13 mg/ml) and xylazine (87 mg/ml). Both jugular veins and a carotid artery were cannulated through a midline neck incision. One jugular vein was used to maintain the anesthesia (2 mg/ml ketamine, 0.25 mg/ml xylazine in 5% guaifenesin) at a rate of 2-3 ml/hour, and the other was used to infuse SR. The blood pressure and heart rate were continuously monitored from the carotid artery during the NMR experiments using a Gould transducer and Coulbourn polygraph. A tracheotomy was performed and the rat was connected to a respirator and maintained at a respiration rate of 90 breaths/minute and a tidal volume of 3 cc. The rats were also nephrectomized to eliminate clearance of the shift reagent, except in those animals where SR clearance was measured. […]\nThe resting transmembrane potential (-Em) was measured in in vivo exposed livers using a modified Ling-Gerard ultramicroelectrode Holliday, R. L., Illner, H. P. & Shires, G. T. (1981) J. Surg. […] Serum sodium, potassium, and hemoglobin concentrations as well as arterial pH, pCO2 and pO2 were monitored throughout the infusion protocol using a standard clinical blood gas analyzer."}, "[4]": {"details": "Bansal et al. 1992; cited from earlier work"}, "[5]": {"system": "rat liver phosphate metabolites and intracellular pH", "test": "In vivo ^31 P NMR (interleaved) of rat liver during shift reagent infusion", "quoted_text": "as §1, §2, §3, §4"}, "[6]": {"system": "renal phosphate metabolites", "test": "In vivo ^31 P NMR of kidney and blood pressure during TmDOTP^5- infusion", "design": "species or system rat (Sprague-Dawley)"}, "[7]": {"system": "rat liver Na^+ (i) and Na^+ (e)", "quoted_text": "Rats with third degree burns covering 40% of the body surface were employed. Adult male Sprague-Dawley rats (300-500 g) were randomly divided into burn (n=7) and sham-burn (n=4) groups. […] Rats were deeply anesthetized with methoxyflurane, shaved, and secured in a template device. A full-thickness scald burn over 40% of the total body surface area was produced by immersing the exposed body surface into a 100° C. water bath for 12 s on the back and sides. The animals were quickly dried after each exposure to avoid additional injury. […] The sham-burn rats were anesthetized and handled in an identical manner except they were exposed to room temperature water. After recovery from inhalation anesthesia, the animals were placed in separate cages and given food and water ad libitum.\nAt 24-hr postburn, the animals were anesthetized by intramuscular injection of a 0.5 ml mixture of ketamine (87 mg/ml) and xylazine (13 mg/ml) and were placed on a warming blanket. The left femoral vein, left femoral artery, and left jugular vein were cannulated for supplemental anesthesia for arterial blood pressure measurement and for infusion of the shift reagent, respectively. Heparinized saline, 9 U/ml, was used in the arterial line. A midline laparotomy was performed to expose the liver, and the xiphoid process was removed. Each rat was then secured in a cradle in an upright position for the MRS experiments. A 2.2 cm diameter surface coil dual tuned to 47 MHz for ^23 Na and 72 MHz for ^31 P was positioned over the intersection of the three major lobes and the abdominal incision was sutured in separate layers around the insulated coil leads to prevent fluid and heat loss during NMR data collection.\nConcurrent ^23 Na and ^31 P spectra were collected using a Nicolet NT 180 spectrometer with an Oxford 4.2 T vertical bore (130 mm) superconducting magnet. The field homogeneity was adjusted first with the ^1 H free induction decay (FID) from the liver and then with the ^23 Na FID for maximum field uniformity. A ^23 Na line width of 40-50 Hz was typical. ^23 Na spectra were generated from the summed FIDs of 100 excitation pulses (40 μs) at 105-ms intervals using 1,024 word data files and a sweep width of ±3000 Hz. The spectra were zero-filled to 4,096 points before Fourier transformation. The relative areas of the Na^+ (i) and Na^+ (e) resonances in the ^23 Na spectra and of the β-ATP and Pi resonances in the phosphorus spectra were determined with the GEMCAP curve analysis program supplied with the Nicolet software.\nAfter initial baseline spectra were obtained, infusion of TmDOTP^5 was begun at 0.5 mmol kg^-1 h^-1, and the rate was increased slowly to 1.2 or 1.6 mmol kg^-1 h^- over a period of 12 min. […]"}, "rat brain": {"system": "rat brain", "details": "cited from earlier work"}, "[8]": {"details": "rat, in vivo", "quoted_text": "as §1, §2, §5, §6"}, "[9]": {"details": "rat, in vivo", "remark": "listed apart in the source", "quoted_text": "Rats with third degree burns covering 40% of the body surface were employed. Adult male Sprague-Dawley rats (300-500 g) were randomly divided into burn (n=7) and sham-burn (n=4) groups. […] Rats were deeply anesthetized with methoxyflurane, shaved, and secured in a template device. A full-thickness scald burn over 40% of the total body surface area was produced by immersing the exposed body surface into a 100° C. water bath for 12 s on the back and sides. The animals were quickly dried after each exposure to avoid additional injury. No postburn analgesics were administered for this model, since the burn injury was a full-thickness burn that destroys all cutaneous nerve endings; as a result, the rats experienced no postburn pain as evidenced by their eating, drinking, moving freely around the cage, and responding to external stimulus. The sham-burn rats were anesthetized and handled in an identical manner except they were exposed to room temperature water. After recovery from inhalation anesthesia, the animals were placed in separate cages and given food and water ad libitum.\nAt 24-hr postburn, the animals were anesthetized by intramuscular injection of a 0.5 ml mixture of ketamine (87 mg/ml) and xylazine (13 mg/ml) and were placed on a warming blanket. The left femoral vein, left femoral artery, and left jugular vein were cannulated for supplemental anesthesia for arterial blood pressure measurement and for infusion of the shift reagent, respectively. Heparinized saline, 9 U/ml, was used in the arterial line. A midline laparotomy was performed to expose the liver, and the xiphoid process was removed. Each rat was then secured in a cradle in an upright position for the MRS experiments. A 2.2 cm diameter surface coil dual tuned to 47 MHz for ^23 Na and 72 MHz for ^31 P was positioned over the intersection of the three major lobes and the abdominal incision was sutured in separate layers around the insulated coil leads to prevent fluid and heat loss during NMR data collection. […]"}, "rat liver": {"system": "rat liver", "details": "in vivo, iv", "quoted_text": "as §1\nThe washout rate of TmDOTP^5- was measured by monitoring the frequency of the shifted ^23 Na peak after stopping the infusion."}, "kidney sodium": {"system": "kidney sodium", "test": "In vivo ^23 Na NMR of kidney during shift reagent infusion", "design": "species or system rat (Sprague-Dawley)", "procedure": "Male Sprage-Dawley rats were prepared for magnetic resonance exam and TmDOTP^5- was infused into animals as described in Example 2. TmDOTP^5- produced well resolved ^23 Na resonances in the kidney with a separation of 7-10 ppm between the extra- and intracellular Na^+ resonances after infusion of about 0.681 mmoles of the SR per Kilogram of Body Weight (KgBW). The inventors also observed a third ^23 Na resonance, broader than the extracellular resonance and shifted to about 35 ppm. This is the first time this resonance has been observed in any SR aided experiment in any organ. After about 10 minutes of TmDOTP^5- infusion (infusion dose 0.147 mmoles/KgBW), one broad shifted resonance became apparent at about 15 ppm. Continued infusion of the SR shifted this resonance further upfield. Simultaneously, another resonance became visible as a high frequency shoulder on the unshifted resonance after about 14 minutes of infusion (infusion dose 0.254 mmoles/KgBW). Finally, the three resonances became clearly resolved after about 17 minutes of infusion (infusion dose 0.334 mmoles/KgBW).\nThe single ^23 Na resonance broadened with infusion of this shift reagent and the intracellular Na^+ resonance became evident as a shoulder on the shifted extracellular Na^+ resonance only after 3-5 mmoles of DyTTHA^3- /KgBW had been infused."}, "rat muscle": {"system": "rat muscle", "details": "cited from earlier work"}, "sodium in in vivo liver [10]": {"system": "sodium in in vivo liver", "test": "In vivo liver ^23 Na NMR with DyTTHA^3- (Blum et al., literature)", "details": "dose of Blum et al. versus present methods", "procedure": "This dose is about 4-6 times greater than a typical dose of MRI contrast agent (0.1-0.2 mmole kg^-1 ), such as GdDTPA^2-. The inventors are aware of only one other ^23 Na NMR study of in vivo liver using a SR. Blum, H., Osbakken, M. D. & Johnson, R. G. (1991) Magn. Reson. Med. 18, 348-357 infused 6 mmoles kg^-1 h^-1 of DyTTHA^3- for 60 to 90 minutes to discriminate between intra- and extracellular sodium. This SR dose is 8-12 times larger than the amount of TmDOTP^5- employed using the methods of the present invention. After DyTTHA^3- infusion, Blum, H., Osbakken, M. D. & Johnson, R. G. (1991) Magn. Reson. […] This is extremely important for valid measurement of tissues volumes, relaxation rates, and ^23 Na visibility during physiological interventions."}, "sodium in in vivo liver [11]": {"system": "sodium in in vivo liver", "details": "cited from earlier work"}, "[12]": {"test": "^23 Na NMR of blood and urine samples during shift reagent infusion", "assay_type": "in vivo, rat (Sprague-Dawley)", "details": "after DyTTHA^3- infusion", "description": "^23 Na spectra obtained from the analysis of the blood and urine samples collected during infusion of either TmDOTP^5- or DyTTHA^3- were compared with the respective in vivo kidney spectrum. […] There was a signal from the urine sample at abut 35 ppm after infusion of DyTTHA^3- also, though there was no distinguishable signal in the corresponding in vivo spectrum (FIG. 3A and FIG. 3B)."}}, "note": "“Also recorded” adds a separate entry of the source."}
{"molecule": "thulium(III) 1,4,7,10-tetraazacyclododecane-1,4,7,10-tetrakis (methylene phosphonate) [TmDOTP^5-]", "values": [{"measurement": "dose at which intra- and extracellular ^23 Na resonances were clearly resolved", "setting": "[1]; rat liver", "value": 0.55, "unit": "mmol/kg"}, {"measurement": "intracellular Na^+ peak intensity with further infusion", "setting": "[1]; rat liver", "value": "did not change with further infusion"}, {"measurement": "resolution of intra- and extracellular ^23 Na resonances in words", "setting": "[1]; rat liver", "value": "sharp and well resolved; also recorded: baseline resolved peaks"}, {"measurement": "^23 Na shift and line broadening in words", "setting": "[1]; rat liver", "value": "larger ^23 Na chemical shift per unit concentration"}, {"measurement": "paramagnetic shift of extracellular Na^+", "setting": "[1]; rat liver, after 0.65 mmoles kg^-1", "value": "approximately 5 ppm"}, {"measurement": "dose required to induce a ^23 Na shift of 5 ppm", "setting": "[1]; rat liver", "value": 0.65, "unit": "mmol/kg"}, {"measurement": "peak width at half height, extracellular resonance", "setting": "[1]; rat liver", "value": 80, "unit": "Hz"}, {"measurement": "peak width at half height, intracellular resonance", "setting": "[1]; rat liver", "value": 70, "unit": "Hz"}, {"measurement": "Ca^2+ release from body stores during infusion", "setting": "[2]", "value": "rapidly released from body stores"}, {"measurement": "liver physiology / tolerability in words", "setting": "[3]", "value": "may be safely used in intact animal studies without the co-addition of Ca^2+; also recorded: basic liver physiology is largely unaffected; also recorded: quite non-perturbing to the animal"}, {"measurement": "resting transmembrane potential (-Em) of liver", "setting": "in vivo exposed livers", "value": "tended to increase during the highest infusion rates"}, {"measurement": "crossing of the blood brain barrier", "setting": "[4]", "value": "does not cross the blood brain barrier"}, {"measurement": "^31 P resonances / phosphate metabolites", "setting": "[5]; rat liver during infusion", "value": "without producing any changes in phosphate metabolite resonances; also recorded: unaffected"}, {"measurement": "intracellular pH", "setting": "[5]; rat liver, from shift of inorganic phosphate peak", "value": "without producing any changes in phosphate metabolite resonances or intracellular pH; also recorded: unaffected"}, {"measurement": "renal high energy phosphate levels", "setting": "[6]; kidney", "value": "unaffected"}, {"measurement": "^31 P resonance areas and chemical shifts, kidney", "setting": "[6]; kidney during infusion", "value": "did not produce any change"}, {"measurement": "blood pressure of the animals", "setting": "[6]; kidney study", "value": "small drop in blood pressure"}, {"measurement": "total dosage needed to produce an equivalent Na^+ shift, burned animals", "setting": "[7]; burned rats, liver", "value": "0.44 ± 0.04", "unit": "mmol"}, {"measurement": "total dosage needed to produce an equivalent Na^+ shift, control animals", "setting": "[7]; control rats, liver", "value": "0.64 ± 0.08", "unit": "mmol"}, {"measurement": "Na^+ (i) concentration in hepatic cells on infusion", "setting": "[7]; rat, in vivo", "value": "did not alter Na^+ (i) concentration in hepatic cells"}, {"measurement": "^31 P spectra of livers during infusion", "setting": "[7]; rat, in vivo", "value": "did not change appreciably"}, {"measurement": "washout t1/2", "setting": "rat brain", "value": 37, "unit": "min"}, {"measurement": "arterial pCO2", "setting": "[8]", "value": "45±2", "unit": "mm Hg"}, {"measurement": "arterial pH", "setting": "[8]", "value": "7.36±0.02"}, {"measurement": "arterial pO2", "setting": "[8]", "value": "120±8", "unit": "mm Hg"}, {"measurement": "developed pressure during infusion", "setting": "[8]", "value": "40±5", "unit": "mm Hg"}, {"measurement": "free Ca^2+ levels in blood serum", "setting": "[8]", "value": "relatively small change"}, {"measurement": "heart rate during infusion", "setting": "[8]", "value": "240±20"}, {"measurement": "hemoglobin", "setting": "[8]", "value": "13 ± 1", "unit": "g/dL"}, {"measurement": "increase in serum sodium", "setting": "[8]", "value": 10, "unit": "meq/L"}, {"measurement": "mean arterial pressure (MAP) during infusion", "setting": "[8]", "value": "~70", "unit": "mm Hg"}, {"measurement": "serum potassium", "setting": "[8]", "value": "3.5±0.2", "unit": "meq/L"}, {"measurement": "serum sodium after infusion", "setting": "[8]", "value": "158±5", "unit": "meq/L"}, {"measurement": "heart rate throughout the study", "setting": "[9]", "value": "261±19", "unit": "beats/min"}, {"measurement": "mean arterial blood pressure (MAP) after infusion, burn group", "setting": "[9]", "value": "65±4", "unit": "mm Hg"}, {"measurement": "mean arterial blood pressure (MAP) after infusion, sham burn group", "setting": "[9]", "value": "78±3", "unit": "mm Hg"}, {"measurement": "washout t1/2", "setting": "rat liver", "value": 9, "unit": "min"}, {"measurement": "intracellular Na^+ resonance intensity with further infusion, kidney", "setting": "kidney sodium; kidney in vivo", "value": "does not change with further SR infusion"}, {"measurement": "resolution of Na^+ resonances in kidney in words", "setting": "kidney sodium; kidney in vivo", "value": "well resolved"}, {"measurement": "separation between extra- and intracellular Na^+ resonances", "setting": "kidney sodium; kidney, about 0.681 mmoles/KgBW", "value": "7-10 ppm"}, {"measurement": "shift of broad shifted resonance", "setting": "kidney sodium; kidney, about 10 minutes, 0.147 mmoles/KgBW", "value": "about 15 ppm"}, {"measurement": "infusion dose at which second resonance became visible as shoulder", "setting": "kidney sodium; kidney, about 14 minutes", "value": 0.254, "unit": "mmoles/KgBW"}, {"measurement": "infusion dose at which three resonances became clearly resolved", "setting": "kidney sodium; kidney, about 17 minutes", "value": 0.334, "unit": "mmoles/KgBW"}, {"measurement": "shift of third ^23 Na resonance", "setting": "kidney sodium; kidney, after TmDOTP^5- infusion", "value": "about 35 ppm"}]}
{"molecule": "O=C([O-])CN(CCN(CCN(CC(=O)[O-])CC(=O)[O-])CC(=O)[O-])CCN(CC(=O)[O-])CC(=O)[O-].[Dy+3]", "note": "[DyTTHA^3-, dysprosium(III)triethylenetetraminehexaacetate]", "values": [{"measurement": "broadening factor of intracellular resonance line-width, DyTTHA^3- versus TmDOTP^5-", "setting": "[1]; rat liver", "value": "~3", "unit": "factor"}, {"measurement": "resolution of intra- and extracellular ^23 Na resonances in words", "setting": "[1]; rat liver", "value": "very broad and not resolved; also recorded: did not improve the resolution of intra- and extracellular resonances"}, {"measurement": "^23 Na shift and line broadening in words", "setting": "[1]; rat liver", "value": "much lower ^23 Na shift per unit concentration and more severe line broadening"}, {"measurement": "dose required to induce a ^23 Na shift of 5 ppm", "setting": "[1]; rat liver", "value": 3.74, "unit": "mmol/kg"}, {"measurement": "peak width at half height, extracellular resonance", "setting": "[1]; rat liver", "value": 300, "unit": "Hz"}, {"measurement": "peak width at half height, intracellular resonance", "setting": "[1]; rat liver", "value": 195, "unit": "Hz"}, {"measurement": "hemodynamic stability during infusion", "setting": "[1]; versus TmDOTP^5-", "value": "hemodynamically more stable"}, {"measurement": "washout t1/2", "setting": "rat muscle", "value": 44, "unit": "min"}, {"measurement": "dose ratio of DyTTHA^3- versus TmDOTP^5-", "setting": "sodium in in vivo liver [10]", "value": "8-12 times"}, {"measurement": "resolution of sodium resonances in words", "setting": "sodium in in vivo liver [11]; 6 mmoles kg^-1 h^-1 for 60 to 90 minutes", "value": "very broad and were not resolved"}, {"measurement": "extracellular Na^+ signal shift in words", "setting": "sodium in in vivo liver [11]; Blum et al.", "value": "shifted downfield by about the same amount as in the present study"}, {"measurement": "shift of ^23 Na signal from urine sample", "setting": "[12]", "value": "~35", "unit": "ppm"}, {"measurement": "dose at which intracellular Na^+ resonance became evident as a shoulder", "setting": "kidney sodium; kidney", "value": "3-5 mmoles/KgBW"}, {"measurement": "dose ratio versus TmDOTP^5- for comparable shift", "setting": "kidney sodium; kidney", "value": "5-8 times"}, {"measurement": "resolution of Na^+ resonances in kidney in words", "setting": "kidney sodium; kidney in vivo", "value": "did not produce resolved Na^+ resonances"}, {"measurement": "third highly shifted Na^+ resonance in kidney in words", "setting": "kidney sodium; kidney in vivo", "value": "no indication of the existence of the third highly shifted Na^+ resonance"}]}
